In this experiment the test system is Plasmodium berghei. In words: Luciferase/luciferin-expressing antifolate-resistant parasites were used to infect a culture of HepG2 cells that were pre-incubated with compounds. Infected hepatocytes emit light due to the luciferase reaction. Assay results are presented as the percent inhibition of light emission compared to control. […]. The format is functional. Particulars: sporozoite; for IC90: read-out: LUCIFERASE INFECTION ASSAY - IC90.

A value given as a limit tells only on which side of the number the result lay.

Consider `Clc1ccccc1/C=C/c1nc(-c2ccccn2)no1`, for which the IC90 is more than 11.6 µM. Also, the 50% inhibitory concentration (IC50) (FFLUC_HILL_SLOPE 3.15, FFLUC_R_SQUARED 0.695, PBLUC_HILL_SLOPE 0.408, PBLUC_R_SQUARED 0.784, read-out: LUCIFERASE INFECTION ASSAY - IC50) was found to be 0.446 µM.
`O=[N+]([O-])c1ccc(-c2nnc(SCc3c(Cl)cccc3Cl)s2)o1`: the IC90 was more than 8.5 µM. Besides, the concentration for half-maximal inhibition (IC50) (FFLUC_HILL_SLOPE 3.16, FFLUC_R_SQUARED 0.676, read-out: LUCIFERASE INFECTION ASSAY - IC50) was more than 8.5 µM.
`Cc1cc(C)c(C(=O)CSc2cc(C)c3cccc(C)c3n2)c(C)c1`: the IC90 was more than 10 µM. In addition, the IC50 (FFLUC_HILL_SLOPE 3.04, FFLUC_R_SQUARED 0.417, HEPG2TOX_HILL_SLOPE 2.16, HEPG2TOX_R_SQUARED 0.191, read-out: LUCIFERASE INFECTION ASSAY - IC50) was more than 10 µM.
Consider `CCCCCC1C/C(=C\c2ccc(C(F)(F)F)cc2)C(=O)/C(=C/c2ccc(C(F)(F)F)cc2)C1` (stereo unspecified), for which the IC90 is more than 6.87 µM. Moreover, the IC50 (FFLUC_HILL_SLOPE 3.17, FFLUC_R_SQUARED 0.803, HEPG2TOX_HILL_SLOPE 11.8, HEPG2TOX_R_SQUARED 0.221, PBLUC_HILL_SLOPE 15.7, PBLUC_R_SQUARED 0.195, read-out: LUCIFERASE INFECTION ASSAY - IC50) was 6.26 µM.
For the compound `O=C(OCCSc1ccc([N+](=O)[O-])c2nonc12)c1cccc(C(F)(F)F)c1`, the 90% effect concentration (IC90) was more than 7.98 µM. The IC50 (FFLUC_HILL_SLOPE 3.07, FFLUC_R_SQUARED 0.747, HEPG2TOX_HILL_SLOPE 10.3, HEPG2TOX_R_SQUARED 0.666, PBLUC_HILL_SLOPE 2.08, PBLUC_R_SQUARED 0.429, read-out: LUCIFERASE INFECTION ASSAY - IC50) was found to be 3.94 µM.
Take `O=C(Nc1nc(-c2cccs2)cs1)c1cc(-c2ccccc2)nn1-c1ccccc1`: the concentration for an effect of 90% (IC90) is more than 10 µM. Besides, the IC50 (FFLUC_HILL_SLOPE 3.07, FFLUC_R_SQUARED 0.622, PBLUC_HILL_SLOPE 1.11, PBLUC_R_SQUARED 0.202, read-out: LUCIFERASE INFECTION ASSAY - IC50) is more than 10 µM.
Regarding `O=S(=O)(c1ccc(Cl)c(N=C2NN=C(c3c[nH]c4ccccc34)CS2)c1)N1CCOCC1`, the IC90 was more than 10 µM. Also, the IC50 (FFLUC_HILL_SLOPE 3.06, FFLUC_R_SQUARED 0.687, HEPG2TOX_HILL_SLOPE 3.66, HEPG2TOX_R_SQUARED 0.952, PBLUC_HILL_SLOPE 1.64, PBLUC_R_SQUARED 0.734, read-out: LUCIFERASE INFECTION ASSAY - IC50) came to 3.83 µM.
As for `CC(C(=O)NCC1CCCCC1)N1CCN(c2ccc(F)cc2)CC1` (stereo unspecified), the IC90 was more than 10 µM. Further, the IC50 (FFLUC_HILL_SLOPE 3.15, FFLUC_R_SQUARED 0.597, read-out: LUCIFERASE INFECTION ASSAY - IC50) was more than 10 µM.
For the compound `CC(NC(=O)c1cc(C2CC2)nn1-c1ccccc1)c1ccc(F)cc1F` (stereo unspecified), the IC90 was more than 10 µM. The IC50 (FFLUC_HILL_SLOPE 3.16, FFLUC_R_SQUARED 0.345, read-out: LUCIFERASE INFECTION ASSAY - IC50) was more than 10 µM.
In the case of `N#C/C(=C\c1ccc([N+](=O)[O-])s1)C(N)=S`, the IC90 was more than 13.8 µM. In addition, for the setting “FFLUC_HILL_SLOPE 3.11, FFLUC_R_SQUARED 0.767, read-out: LUCIFERASE INFECTION ASSAY - IC50”, the IC50 was more than 13.8 µM.
For the compound `Cc1cc2c(cc1C)CSC(c1ccccc1OC(=O)c1cccc3ccccc13)SC2`, the IC90 is more than 10 µM. Also, the concentration for half-maximal inhibition (IC50) (FFLUC_HILL_SLOPE 3.12, FFLUC_R_SQUARED 0.597, read-out: LUCIFERASE INFECTION ASSAY - IC50) is more than 10 µM.
Turning to `Cc1nn(-c2ccccc2)c2c1C(c1cccnc1)C(c1nc3ccccc3s1)C(c1ccccc1)=N2` (stereo unspecified), the IC90 is more than 10 µM. For the same compound, the IC50 (FFLUC_HILL_SLOPE 3.11, FFLUC_R_SQUARED 0.548, read-out: LUCIFERASE INFECTION ASSAY - IC50) was more than 10 µM.
With `COc1ccc(Cl)cc1NC(=O)COC(=O)COc1ccc(/C=C2\SC(=S)N(c3cccc(C(F)(F)F)c3)C2=O)cc1OC`, the IC90 was more than 10 µM. The IC50 (FFLUC_HILL_SLOPE 3.19, FFLUC_R_SQUARED 0.292, read-out: LUCIFERASE INFECTION ASSAY - IC50) was more than 10 µM.
For the compound `CCOC(=O)c1sc(NC(=O)c2cccc(S(=O)(=O)N(C)c3ccc(OC)cc3)c2)cc1C`, the IC90 is 9.74 µM. Moreover, the IC50 (FFLUC_HILL_SLOPE 3.21, FFLUC_R_SQUARED 0.745, HEPG2TOX_HILL_SLOPE 15.7, HEPG2TOX_R_SQUARED 0.428, PBLUC_HILL_SLOPE 5.31, PBLUC_R_SQUARED 0.793, read-out: LUCIFERASE INFECTION ASSAY - IC50) came to 6.44 µM.
As to `CCOC(=O)c1cc(NC(=O)c2ccc(Cl)c(S(=O)(=O)N(Cc3ccccc3)c3ccccc3OC)c2)cc(C(=O)OCC)c1`, the IC90 was more than 10 µM. In addition, under “FFLUC_HILL_SLOPE 3.02, FFLUC_R_SQUARED 0.375, read-out: LUCIFERASE INFECTION ASSAY - IC50”, the IC50 is more than 10 µM.
As for `O=c1[nH]nc(Sc2ncc([N+](=O)[O-])s2)n1Cc1ccccc1`, the concentration for an effect of 90% (IC90) is more than 9.84 µM. Also, the IC50 (FFLUC_HILL_SLOPE 3.03, FFLUC_R_SQUARED 0.344, HEPG2TOX_HILL_SLOPE 12.4, HEPG2TOX_R_SQUARED 0.571, PBLUC_HILL_SLOPE 13, PBLUC_R_SQUARED 0.0851, read-out: LUCIFERASE INFECTION ASSAY - IC50) was found to be 8.7 µM.
`Cc1ccc2nc(NC(=O)c3cccc(F)c3)c(C(=O)NCC(C)C)n2c1`: the IC90 worked out at 3.14 µM. The half-inhibitory concentration (IC50) (FFLUC_HILL_SLOPE 3.07, FFLUC_R_SQUARED 0.833, HEPG2TOX_HILL_SLOPE 1.43, HEPG2TOX_R_SQUARED 0.94, PBLUC_HILL_SLOPE 3.56, PBLUC_R_SQUARED 0.485, read-out: LUCIFERASE INFECTION ASSAY - IC50) was found to be 1.69 µM.
As for `NNc1nc(C(F)(F)F)nc2c1cnn2Cc1ccccc1`, the IC90 is more than 10 µM. For the same compound, under “FFLUC_HILL_SLOPE 3.09, FFLUC_R_SQUARED 0.0505, read-out: LUCIFERASE INFECTION ASSAY - IC50”, the IC50 is more than 10 µM.
As for `CC(=O)c1ccc(NC(=O)N2[C@@H]3CC[C@@H](C3)[C@H]2c2nc3cccc(OCc4ccccc4)c3[nH]2)cc1`, the IC90 is more than 10 µM. The IC50 (FFLUC_HILL_SLOPE 3.04, FFLUC_R_SQUARED 0.885, read-out: LUCIFERASE INFECTION ASSAY - IC50) is more than 10 µM.
Consider `Clc1cc2c(c3ncccc13)OCN(Cc1ccco1)C2`, for which the IC90 is 1.44 µM. The IC50 (FFLUC_HILL_SLOPE 3.15, FFLUC_R_SQUARED 0.751, HEPG2TOX_HILL_SLOPE 1.67, HEPG2TOX_R_SQUARED 0.873, PBLUC_HILL_SLOPE 9.79, PBLUC_R_SQUARED 0.762, read-out: LUCIFERASE INFECTION ASSAY - IC50) worked out at 1.15 µM.
As for `FC(F)(F)c1nnc2ccc(NC(c3ccccc3)c3cc4ccccc4o3)nn12` (stereo unspecified), the IC90 was determined as 4.2 µM. Moreover, the IC50 (FFLUC_HILL_SLOPE 3.11, FFLUC_R_SQUARED 0.599, PBLUC_HILL_SLOPE 15.6, PBLUC_R_SQUARED 0.326, read-out: LUCIFERASE INFECTION ASSAY - IC50) stood at 3.65 µM.
In the case of `Cc1ccc(N2C(=O)c3ccccc3C(C=NNc3ccc(S(=O)(=O)N4CCCC4)cc3[N+](=O)[O-])C2=O)cc1` (stereo unspecified), the IC90 is more than 10 µM. Also, the IC50 (FFLUC_HILL_SLOPE 3.06, FFLUC_R_SQUARED 0.613, HEPG2TOX_HILL_SLOPE 13, HEPG2TOX_R_SQUARED 0.977, read-out: LUCIFERASE INFECTION ASSAY - IC50) was more than 10 µM.
For `CC(C)c1cc(N(c2ccc(Br)cc2)S(=O)(=O)c2ccc(Cl)cc2)cc(C(C)C)c1O`, the IC90 is more than 10 µM. Moreover, the IC50 (FFLUC_HILL_SLOPE 3.1, FFLUC_R_SQUARED 0.697, PBLUC_HILL_SLOPE 9.64, PBLUC_R_SQUARED 0.214, read-out: LUCIFERASE INFECTION ASSAY - IC50) amounted to 8.66 µM.
Consider `O=C(Nc1nonc1-c1ccc(Cl)cc1)C(c1ccccc1)c1ccccc1`, for which the IC90 is 8.22 µM. Further, under “FFLUC_HILL_SLOPE 3.18, FFLUC_R_SQUARED 0.644, PBLUC_HILL_SLOPE 3.44, PBLUC_R_SQUARED 0.465, read-out: LUCIFERASE INFECTION ASSAY - IC50”, the IC50 stood at 4.34 µM.
For `CCc1cccc2c(C(=O)COC(=O)C3CCN(S(=O)(=O)c4ccc(Cl)c(C(F)(F)F)c4)CC3)c[nH]c12`, the IC90 is more than 10 µM. Where the note is “FFLUC_HILL_SLOPE 3.04, FFLUC_R_SQUARED 0.433, read-out: LUCIFERASE INFECTION ASSAY - IC50”, the IC50 was more than 10 µM.
As for `NC(=O)C1CCN(c2nc(-c3ccc(Cl)cc3)nc3sc4c(c23)CCC4)CC1`, the IC90 is 3.79 µM. The IC50 (FFLUC_HILL_SLOPE 3.15, FFLUC_R_SQUARED 0.774, HEPG2TOX_HILL_SLOPE 6.41, HEPG2TOX_R_SQUARED 0.32, PBLUC_HILL_SLOPE 20.1, PBLUC_R_SQUARED 0.486, read-out: LUCIFERASE INFECTION ASSAY - IC50) was found to be 3.4 µM.
`CN(C)c1c(/C=C2\C(=O)Nc3ccccc32)cc(/C=C2/C(=O)Nc3ccccc32)c(N(C)C)c1C#N`: the IC90 is 4.13 µM. Moreover, the IC50 (FFLUC_HILL_SLOPE 3.06, FFLUC_R_SQUARED 0.454, HEPG2TOX_HILL_SLOPE 1.28, HEPG2TOX_R_SQUARED 0.858, PBLUC_HILL_SLOPE 2.4, PBLUC_R_SQUARED 0.768, read-out: LUCIFERASE INFECTION ASSAY - IC50) is 1.65 µM.
Regarding `COc1ccc([N+](=O)[O-])cc1C(=O)Nc1nc2c(s1)CCCCC2`, the IC90 is 0.411 µM. The IC50 (FFLUC_HILL_SLOPE 3.14, FFLUC_R_SQUARED 0.813, PBLUC_HILL_SLOPE 0.763, PBLUC_R_SQUARED 0.879, read-out: LUCIFERASE INFECTION ASSAY - IC50) came to 0.0231 µM.

The values are drawn from ChEMBL document CHEMBL4483862, “Open-source discovery of chemical leads for next-generation chemoprotective antimalarials” (2018).
